# Values of other authors in US9782432B2, “Polymers and methods thereof for wound healing” (RUTGERS, THE STATE UNIVERSITY OF NEW JERSEY, priority 2012, dated 2017).
# Like-named read-outs stand apart in the source and are kept apart here.
# What was measured:
# adhesions [1] = details: 5 mg/kg/day intramuscularly, 7 days
# adhesions [2] = details: 0.35, 0.7 or 1.4 mg every 6 hours for 48 or 96 hours
# adhesions [3] = system: adhesions
# adhesion formation [4] = details: rats, IP injection
# adhesion formation [5] = details: rats with intact pineal glands, injections of melatonin
# adhesion formation [6] = details: dog, IP injection
# adhesion formation [7] = system: adhesion formation
# adhesions [8] = details: IP injections, rat model
molecule,measurement,setting,value
O=C(O)COC(=O)Cc1ccccc1Nc1c(Cl)cccc1Cl [aceclofenac],decrease in fibroblasts at the injury site,adhesions [1],8%
same,"fibrous area, treatment vs control group",adhesions [1],significant difference
"CC(=O)Oc1ccccc1C(=O)O [aspirin, acetylsalicylic acid]",adhesions vs untreated control,adhesions [2],no group was significantly different from the untreated control
same,adhesion rate,adhesions [3]; 1.7 mg/kg/day for 5 days after surgery,44%
same,adhesion rate,adhesions [3]; 28.0 mg/kg/day for 5 days after surgery,77%
COc1ccc2[nH]cc(CCNC(C)=O)c2c1 [melatonin],adhesion formation,adhesion formation [4],significantly reduce abdominal adhesion formation
same,adhesions vs control,adhesion formation [5],significantly less adhesions than the control
same,adhesion formation,adhesion formation [6],significantly reduce adhesion formation
vitamin E,reduction of adhesion formation,adhesion formation [7]; IP injection,80%
same,reduction of adhesion formation,adhesion formation [7]; oral or intramuscular administration,not when administered orally or intramuscularly
same,abdominal adhesion formation,"adhesion formation [7]; rats, injected intraperitoneally",significantly reduce abdominal adhesion formation
same,efficacy compared with Seprafilm,adhesions [8],as effective as Seprafilm
